This experiment addresses T1, human transferrin (htf) (Homo sapiens, UniProt P02787).
T1 construct: gene TF; single-chain glycoprotein of 679 amino acids (mature)
Briefly: intrinsic fluorescence quenching, modified Stern-Volmer plot. It counts as binding. The following applies: 298 K; 4 uM htf, 0-8 uM citral; excitation 280 nm; double-log. The text has this:
intrinsic fluorescence quenching, modified Stern-Volmer plot on human transferrin (htf)

SMILES strings stand for the structures.

T1 sequence (P02787 20-698): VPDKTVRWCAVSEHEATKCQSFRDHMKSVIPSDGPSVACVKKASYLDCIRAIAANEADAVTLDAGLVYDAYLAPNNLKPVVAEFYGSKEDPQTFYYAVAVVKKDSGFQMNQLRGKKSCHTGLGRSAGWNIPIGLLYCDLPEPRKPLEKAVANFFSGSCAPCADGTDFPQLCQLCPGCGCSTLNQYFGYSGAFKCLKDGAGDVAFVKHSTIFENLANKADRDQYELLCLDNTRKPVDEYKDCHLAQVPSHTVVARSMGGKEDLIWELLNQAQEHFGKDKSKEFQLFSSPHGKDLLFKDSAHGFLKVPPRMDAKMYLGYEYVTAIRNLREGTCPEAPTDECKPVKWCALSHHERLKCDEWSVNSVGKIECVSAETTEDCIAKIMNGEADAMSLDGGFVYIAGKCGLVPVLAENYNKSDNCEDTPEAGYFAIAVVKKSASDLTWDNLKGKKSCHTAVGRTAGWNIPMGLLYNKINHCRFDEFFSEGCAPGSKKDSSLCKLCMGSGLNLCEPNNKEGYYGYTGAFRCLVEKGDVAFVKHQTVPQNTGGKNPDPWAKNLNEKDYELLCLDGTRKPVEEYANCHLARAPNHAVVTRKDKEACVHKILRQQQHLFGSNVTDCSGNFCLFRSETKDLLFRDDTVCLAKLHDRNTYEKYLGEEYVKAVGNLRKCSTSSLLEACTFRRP

On to `CC(C)=CCCC(C)=CC=O` [citral], for which the “K 10^6M^-1” value was 0.82 10^6 M^-1.

The record behind these values is article PMC467046, “Computational and spectroscopic insight into the binding of citral with human transferrin: Targeting neurodegenerative diseases” (Heliyon, 2024).
